Laboratory results: patent publication US9174993B2, “N-[4-(1H-pyrazolo[3,4-b]pyrazin-6-yl)-phenyl]-sulfonamides and their use as pharmaceuticals” (SANOFI, priority 2011, dated 2015)

Columns and labels:
[1] = test system: SGK-1 dependent activation of ENaC-currents in A6 cell monolayers; assay: Functional electrophysiological assay, SGK-1 dependent activation of ENaC currents in A6 cell monolayers (Ussing chamber); type: cell-based; settings: Xenopus laevis, 0.75 h, hypoosmotic shock 45 min, read-out: IC50 for inhibition of ΔI'sc (amiloride-sensitive ENaC-dependent short circuit current)
Method: Materials and methods for Ussing chamber measurement of A6 cells: The renal Xenopus laevis cell line A6 (Rafferty, K. A.; Mass culture of amphibia cells: methods and observations concerning stability of cell type. In: Biology of Amphibian Tumors, edited by M. Mizell. New York: Springer-Verlag, 1969, p. 52-81) was used for the experiments. Cells were grown in cell culture flasks (Nunc) at 28° C. in a humidified atmosphere with 4% CO2. The culture medium contained a 7:3 mixture of Leibovitz's L-15 (Sigma-Aldrich)/Coon's (Sigma-Aldrich) media supplemented with 10% fetal bovine serum (PAA), 20% sterile water, 25 mM NaHCO3 (Sigma-Aldrich), 100 U/ml penicillin (PAA) and 100 μg/ml streptomycin (PAA). The osmolality of the medium was 270 mOsml/kg H2O). […] Filters with confluent A6 cells were transferred into a continuously perfused Ussing-chamber, and electrophysiological parameters were measured under open circuit conditions using a transepithelial clamp amplifier (EP Design). Short circuit current (I′sc) was calculated by Ohm's law. […]
To evaluate the effects of SGK inhibitors on ENaC-mediated transepithelial currents, […] monolayers were first equilibrated for 5 min with isoosmotic Ringer-solution from both the luminal and basolateral side of the cell layer. […] ENaC-dependent I′sc after the hypoosmotic shock (I′schypo) was determined by application of amiloride at the end of the experiment. […]

[2] = target: recombinant human SGK-1 enzyme (Homo sapiens, UniProt O00141); assay: SGK-1 enzymatic activity assay (substrate phosphorylation, fluorescein-labeled peptide, lab-chip); type: biochemical; settings: ATP 10 μM, peptide substrate 1 μM, 60 min at 37° C., read-out: IC50 for inhibition of SGK-1 enzymatic activity
Sequence of recombinant human SGK-1 enzyme (O00141 whole entry, looked up): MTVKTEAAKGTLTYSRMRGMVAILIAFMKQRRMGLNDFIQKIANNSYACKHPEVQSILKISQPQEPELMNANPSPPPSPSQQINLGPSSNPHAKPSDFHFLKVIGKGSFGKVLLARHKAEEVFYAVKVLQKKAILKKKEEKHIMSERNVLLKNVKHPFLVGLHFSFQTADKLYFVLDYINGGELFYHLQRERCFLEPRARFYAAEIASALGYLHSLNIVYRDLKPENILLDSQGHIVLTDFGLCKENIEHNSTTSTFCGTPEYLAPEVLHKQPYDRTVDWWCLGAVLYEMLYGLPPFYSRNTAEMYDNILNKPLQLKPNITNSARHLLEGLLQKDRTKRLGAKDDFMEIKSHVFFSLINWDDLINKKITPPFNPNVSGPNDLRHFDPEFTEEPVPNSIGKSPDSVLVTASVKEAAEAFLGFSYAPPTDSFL
Text: The synthesized fluorescent labeled peptide substrate contained (5(6)-Carboxyfluorescein)-RPRAATF-NH2. The phosphorylated substrate peptide and non-phosphorylated substrate peptide were separated with caliper life science's lab-chip technology based on a micro fluidics method. All fluid flow was established on the chip by applying a vacuum of a few psi to the waste well transporting fluid from various sources through interconnecting channels. Because the phosphoryl group is doubly negatively charged, under the pressure-driven hydrodynamic flow and the voltage-driven flow within the electric field, the fluorescent labeled peptide substrate and its phosphorylation product appear at different times in the detection window to the detection point. Substrate turnover can thus be determined as the ratio of the product peak area and the sum of substrate peak area and product peak area.
The enzyme reaction was carried out in a buffer containing 25 mM Tris-HCl (pH 7.4), 5 mM MgCl2, 2 mM MnCl2, 2 mM DTT, and 0.03% bovine serum albumine. The enzyme was pre-incubated with the test compound for 30 min at 24° C. The kinase reaction was initiated by addition of the substrate mixture containing the peptide substrate (final concentration 1 μM) and ATP (final concentration 10 μM). After 60 min incubation at 37° C., the enzyme reaction was terminated by adding a buffer containing 100 mM Hepes (pH 7.4) and 35 mM EDTA.
For the determination of the compound dose response, a 10 mM DMSO stock solution was diluted and tested in a ten-point, three-fold dilution series run in duplicate beginning at 30 μM final concentration. Data were analyzed using a four-parameter curve fit with a fixed minimum and maximum experimentally defined as the average positive and negative controls on each plate.

[3] = test system: collagen type X (Col10a1) expression in ATDC5 cells; assay: Chondrocyte hypertrophic differentiation in mouse chondrogenic ATDC5 cells (collagen type X expression); type: cell-based; settings: 336 h, 14 days differentiation with BMP2 and T3, Col10a1 by quantitative real-time PCR, read-out: IC50 for the inhibition of collagen type X expression
Text: The ATDC5 cell assay was used as in vitro model to determine the effects of the compounds of the invention on chondrocyte hypertrophic differentiation by monitoring the expression levels of collagen type X (Col10a1) as specific marker of chondrocyte hypertrophy.
Background: ATDC5 cells are a clonal mouse embryonic cell line derived from multipotent AT805 teratocarcinoma cells (Atsumi T, Miwa Y, Kimata K, Ikawa Y.; A chondrogenic cell line derived from a differentiating culture of AT805 teratocarcinoma cells. Cell Differ. Dev. 30 (1990), 109-116). […] Chondrogenic differentiation can be shown by measuring the expression of the cartilage main collagen (Col2a1) and aggrecan (AGC1) and glycosaminoglycan-staining with Alcian Blue within two weeks after insulin-triggered differentiation, and hypertrophic differentiation can be monitored by the expression of collagen type X (Col10a1), a specific marker of chondrocyte hypertrophy within 21 days of in vitro culture. […] SGK-inhibitors were added to differentiating ATDC5 cells for 14 days and Col10a1 gene expression was quantified to determine effects on chondrocyte hypertrophic differentiation. […]
After two weeks of cell culture, RNA was isolated and converted to cDNA for determination of gene expression by quantitative real-time PCR. […] RNA was isolated in 30 μl of pure water and the RNA content measured by UV-spectroscopy (Nanodrop, Peqlab). […]

IC50 [2]	SMILES	further results
–	Nc1n[nH]c2nc(-c3ccc(NS(=O)(=O)c4cccc(Cl)c4Cl)cc3)cnc12 [Example 1, N-[4-(3-Amino-1H-pyrazolo[3,4-b]pyrazin-6-yl)phenyl]-2,3-dichloro-benzenesulfonamide]	IC50 [1]: 2100 nM
18 nM	Nc1n[nH]c2nc(-c3ccc(NS(=O)(=O)c4ccc(F)cc4Cl)cc3)cnc12 [Example 61, N-[4-(3-Amino-1H-pyrazolo[3,4-b]pyrazin-6-yl)-phenyl]-2-chloro-4-fluoro-benzenesulfonamide]	–
1050 nM	Cc1nn(C)c(Cl)c1S(=O)(=O)Nc1ccc(-c2cnc3c(NS(=O)(=O)c4c(C)nn(C)c4Cl)n[nH]c3n2)cc1 [Example 43, 5-Chloro-N-[4-[3-[(5-chloro-1,3-dimethyl-pyrazol-4-yl)sulfonylamino]-1H-pyrazolo[3,4-b]pyrazin-6-yl]phenyl]-1,3-dimethyl-pyrazole-4-sulfonamide]	–
31 nM	Nc1n[nH]c2nc(-c3ccc(NS(=O)(=O)c4cc(F)cc(F)c4Cl)cc3)cnc12 [Example 60, N-[4-(3-Amino-1H-pyrazolo[3,4-b]pyrazin-6-yl)-phenyl]-2-chloro-3,5-difluoro-benzenesulfonamide]	–
–	Nc1n[nH]c2nc(-c3ccc(NS(=O)(=O)c4cc(Cl)ccc4F)c(F)c3)cnc12 [Example 6, N-[4-(3-Amino-1H-pyrazolo[3,4-b]pyrazin-6-yl)-2-fluoro-phenyl]-5-chloro-2-fluoro-benzenesulfonamide]	IC50 [3]: 559 nM
47 nM	N#Cc1ccc(F)c(S(=O)(=O)Nc2ccc(-c3cnc4c(N)n[nH]c4n3)cc2)c1 [Example 45, N-[4-(3-Amino-1H-pyrazolo[3,4-b]pyrazin-6-yl)-phenyl]-5-cyano-2-fluoro-benzenesulfonamide]	–
413 nM	O=S(=O)(Nc1ccc(-c2cnc3c(NS(=O)(=O)c4cc(Cl)c(F)cc4F)n[nH]c3n2)cc1)c1cc(Cl)c(F)cc1F [Example 42, 5-Chloro-N-[4-[3-[(5-chloro-2,4-difluoro-phenyl)sulfonylamino]-1H-pyrazolo[3,4-b]pyrazin-6-yl]phenyl]-2,4-difluoro-benzenesulfonamide]	–
